System: NCI-H226
Test: 72H TEAD Proliferation Assay (Cell Titer Glo 2.0)
Format: cell-based
Conditions: Homo sapiens, NCI-H226, 72 h, CTG 2.0, cell line not given (NCI-H226 responsive, NCI-H28 non-responsive)
Procedure: 72H TEAD Proliferation Assay.
The effect of TEAD inhibition on cell proliferation was assayed using Cell Titer Glo (CTG) 2.0 to measure response in mesothelioma cell lines NCI-H226 (ATCC, #CRL-5826) and NCI-H28 (ATCC, #CRL-5820).
The 72H TEAD Proliferation assay utilizes Cell Titer-Glo 2.0 (Promega, #G9243) to measure the proliferation of cells in the presence or absence of compound. Cell Titer-Glo 2.0 determines the amount of viable cells by quantifying ATP (an indication of metabolically active cells). It utilizes the conversion of Luciferin to Oxyluciferin and a luminescent signal with the use of ATP to report the quantity of viable cells in culture. Within cells that are continually growing, ATP is being synthesized to meet their metabolic demands, meanwhile the opposite is true for cells that are dying or slowing down their proliferation and either no longer using ATP or are using less, respectively. The NF2-deficient NCI-H226 has been genetically validated as a cell line that is sensitive to TEAD inhibition. The NF2-wild type NCI-H28 has been genetically validated as a cell line that is not sensitive to TEAD inhibition and grows independently of TEAD activity.
Compounds were screened against the responsive NCI-H226 cell line to assess the compounds' ability to inhibit TEAD and cell growth. Compounds were also screened against the non-responsive NCI-H28 cell line to ascertain whether the inhibition of cell growth was due to inhibition of the target TEAD or whether the inhibition was due to off-target cytotoxicity.
• 1) Assay ready plates (ARPs) were prepared by Echo acoustic liquid handler. […] After CTG addition, plates were placed on shaker at 800 RPM for 15 minutes at room temperature and kept in the dark. Luminescence was measured using EnVision multilabel plate reader with ultra-sensitive detection module. • 9) Data Analysis: First background luminescence (no CTG wells) was subtracted from luminescence reading of all wells, then TO luminescence was subtracted from T72 luminescence. To compare anti-proliferative effect of compounds, GI50 was obtained by fitting dose response curves with nonlinear regression curve fit.

Q: With `O=C(O)c1ccc2c(c1)nc(-c1ccc(C3(C(F)(F)F)CC3)cc1)c1nccn12` [I-67, 4-(4-(1-(Trifluoromethyl)cyclopropyl)phenyl)imidazo[1,2-a]quinoxaline-7-carboxylic acid] as the compound, how does the GI50 read?
A: > 10 µM

Q: Which GI50 does the source give for `O=C(O)c1ccc2c(c1)nc(C1CCCCC1)c1nccn12` [I-68, 4-Cyclohexylimidazo[1,2-a]quinoxaline-7-carboxylic acid] here?
A: > 10 µM

Q: With `O=C(O)c1ccc2c(c1)nc(C1CCOCC1)c1nccn12` [I-69, 4-(Tetrahydro-2H-pyran-4-yl)imidazo[1,2-a]quinoxaline-7-carboxylic acid] as the compound, how does the GI50 read?
A: > 10 µM

Q: For `O=C(O)c1ccc2c(c1)nc(C1CC1)c1nccn12` [I-70, 4-Cyclopropylimidazo[1,2-a]quinoxaline-7-carboxylic acid], which GI50 is on record?
A: > 10 µM

Q: How did the GI50 turn out when `O=C(O)c1ccc2c(c1)nc(C1CCC1)c1nccn12` [I-71, 4-Cyclobutylimidazo[1,2-a]quinoxaline-7-carboxylic acid] was run?
A: > 10 µM

Q: How did the GI50 turn out when `CC(C)(C)c1ccc(-c2nc3cc(C(=O)O)cc(F)c3n3ccnc23)cc1` [I-72, 4-(4-(tert-Butyl)phenyl)-9-fluoroimidazo[1,2-a]quinoxaline-7-carboxylic acid] was run?
A: 5 to 10 µM

Q: With `CC(C)(C)c1ccc(-c2nc3cc(C(N)=O)ccc3n3ccnc23)cc1` [I-73, 4-(4-(tert-Butyl)phenyl)imidazo[1,2-a]quinoxaline-7-carboxamide] as the compound, how does the GI50 read?
A: 1 to 5 µM

Q: For `CN(C)C(=O)c1ccc2c(c1)nc(-c1ccc(C(C)(C)C)cc1)c1nccn12` [I-74, 4-(4-(tert-Butyl)phenyl)-N,N-dimethylimidazo[1,2-a]quinoxaline-7-carboxamide], which GI50 is on record?
A: 5 to 10 µM

Q: Which GI50 does the source give for `CC(C)(C)c1ccc(-c2nc3cc(C#N)ccc3n3ccnc23)cc1` [I-75, 4-(4-(tert-Butyl)phenyl)imidazo[1,2-a]quinoxaline-7-carbonitrile] here?
A: > 10 µM

Q: For `CC(C)(C)c1ccc(-c2nc3cc(-c4nnn[nH]4)ccc3n3ccnc23)cc1` [I-76, 4-(4-(tert-Butyl)phenyl)-7-(1H-tetrazol-5-yl)imidazo[1,2-a]quinoxaline], which GI50 is on record?
A: > 10 µM

Q: For `CC(C)(C)c1ccc(-c2nc3cc(CO)ccc3n3ccnc23)cc1` [I-77, (4-(4-(tert-Butyl)phenyl)imidazo[1,2-a]quinoxalin-7-yl)methanol], which GI50 is on record?
A: > 10 µM

Q: Which GI50 does the source give for `COCC(C)NC(=O)N1CCc2c(cccc2-c2ccc(C(F)(F)F)cc2)C1` (stereo not shown) [I-78, N-(1-methoxypropan-2-yl)-5-(4-(trifluoromethyl)phenyl)-3,4-dihydroisoquinoline-2(1H)-carboxamide] here?
A: ≤ 1 µM

Q: How did the GI50 turn out when `COCC(C)OC(=O)N1CCc2c(cccc2-c2ccc(C(F)(F)F)cc2)C1` (stereo not shown) [I-79, 1-Methoxypropan-2-yl 5-(4-(trifluoromethyl)phenyl)-3,4-dihydroisoquinoline-2(1H)-carboxylate] was run?
A: 1 to 5 µM

Q: For `C=CC(=O)Nc1ccc2cnc(-c3ccc(C(C)(C)C)cc3)nc2c1` [I-80, N-(2-(4-(tert-butyl)phenyl)quinazolin-7-yl)acrylamide], which GI50 is on record?
A: ≤ 1 µM

Q: For `C=CC(=O)Nc1ccc2cnc(-c3ccc(C)cc3)nc2c1` [I-81, N-(2-(p-Tolyl)quinazolin-7-yl)acrylamide], which GI50 is on record?
A: 1 to 5 µM

Q: Which GI50 does the source give for `C=CC(=O)Nc1ccc2cnc(-c3ccc(F)cc3)nc2c1` [I-82, N-(2-(4-Fluorophenyl)quinazolin-7-yl)acrylamide] here?
A: 1 to 5 µM

Q: For `Cc1cc2c(-c3ccc(C(C)(C)C)cc3)nc3cc(C(=O)O)ccc3n2c1` [I-83, 4-(4-(tert-Butyl)phenyl)-2-methylpyrrolo[1,2-a]quinoxaline-7-carboxylic acid], which GI50 is on record?
A: 1 to 5 µM

Q: How did the GI50 turn out when `Cc1cc2c(-c3ccc(C(F)(F)F)cc3F)nc3cc(C(=O)O)ccc3n2c1` [I-84, 4-(2-Fluoro-4-(trifluoromethyl)phenyl)-2-methylpyrrolo[1,2-a]quinoxaline-7-carboxylic acid] was run?
A: ≤ 1 µM

Q: How did the GI50 turn out when `C=CC(=O)Nc1ccc2c(C)cc(-c3ccc(C(F)(F)F)cc3)nc2c1` [I-85, N-(4-Methyl-2-(4-(trifluoromethyl)phenyl)quinolin-7-yl)acrylamide] was run?
A: ≤ 1 µM

Q: How did the GI50 turn out when `C=CC(=O)Nc1ccc2c(C)cc(-c3ccc(C(C)(C)C)cc3)nc2c1` [I-86, N-(2-(4-(tert-Butyl)phenyl)-4-methylquinolin-7-yl)acrylamide] was run?
A: ≤ 1 µM

Q: Which GI50 does the source give for `Cc1cc(-c2ccc(C(F)(F)F)cc2F)nc2cc(C(=O)O)ccc12` [I-87, 2-(2-Fluoro-4-(trifluoromethyl)phenyl)-4-methylquinoline-7-carboxylic acid] here?
A: ≤ 1 µM

Q: `Cc1cc(-c2ccc(C(C)(C)C)cc2)nc2cc(C(=O)O)ccc12` [I-88, 2-(4-(tert-Butyl)phenyl)-4-methylquinoline-7-carboxylic acid] was tested. Which GI50 did it give?
A: 1 to 5 µM

Q: With `Cc1cc(-c2ccc(C(F)(F)F)cc2)nc2cc(C(=O)O)ccc12` [I-89, 4-Methyl-2-(4-(trifluoromethyl)phenyl)quinoline-7-carboxylic acid] as the compound, how does the GI50 read?
A: ≤ 1 µM

Q: For `C=CC(=O)Nc1ccc2c(C)cc(-c3ccc(C(F)(F)F)cc3F)nc2c1` [I-90, N-(2-(2-fluoro-4-(trifluoromethyl)phenyl)-4-methylquinolin-7-yl)acrylamide], which GI50 is on record?
A: ≤ 1 µM

Q: With `C=CC(=O)Nc1ccc2c(c1)nc(-c1ccc(C(C)(C)C)cc1)c1nccn12` [I-91, N-(4-(4-(tert-butyl)phenyl)imidazo[1,2-a]quinoxalin-7-yl)acrylamide] as the compound, how does the GI50 read?
A: ≤ 1 µM

Q: `C=CC(=O)Nc1ccc2ncc(-c3ccc(C(C)(C)C)cc3)nc2c1` [I-92, N-(3-(4-(tert-butyl)phenyl)quinoxalin-6-yl)acrylamide] was tested. Which GI50 did it give?
A: 1 to 5 µM

Q: How did the GI50 turn out when `CC(C)(C)c1ccc(-c2nc(C(=O)O)cn3cnnc23)cc1` [I-93, 8-(4-(tert-Butyl)phenyl)-[1,2,4]triazolo[4,3-a]pyrazine-6-carboxylic acid] was run?
A: > 10 µM

Q: Which GI50 does the source give for `CC(C)(C)c1ccc(-c2nc(C(=O)O)cn3cncc23)cc1` [I-94, 8-(4-(tert-Butyl)phenyl)imidazo[1,5-a]pyrazine-6-carboxylic acid] here?
A: > 10 µM

Q: How did the GI50 turn out when `CC(C)(C)c1ccc(-c2cncc3cc(C(=O)O)ccc23)cc1` [I-95, 4-(4-(tert-Butyl)phenyl)isoquinoline-7-carboxylic acid] was run?
A: > 10 µM

Q: How did the GI50 turn out when `C=CC(=O)Nc1cn2cccc2c(-c2ccc(C(F)(F)F)cc2)n1` [I-96, N-(1-(4-(trifluoromethyl)phenyl)pyrrolo[1,2-a]pyrazin-3-yl)acrylamide] was run?
A: ≤ 1 µM

Q: For `CC(C)(C)c1ccc(-c2cncc3c(C(=O)O)c[nH]c23)cc1` [I-97, 7-(4-(tert-Butyl)phenyl)-1H-pyrrolo[3,2-c] pyridine-3-carboxylic acid], which GI50 is on record?
A: > 10 µM

Q: Which GI50 does the source give for `C=CC(=O)Nc1ccc2cc(C)c(-c3ccc(C(C)(C)C)cc3)nc2c1` [I-98, N-(2-(4-(tert-butyl)phenyl)-3-methylquinolin-7-yl)acrylamide] here?
A: ≤ 1 µM

Q: With `C=CC(=O)Nc1cccc2nc(-c3ccc(C(C)(C)C)cc3)c(C)cc12` [I-99, N-(2-(4-(tert-butyl)phenyl)-3-methylquinolin-5-yl)acrylamide] as the compound, how does the GI50 read?
A: > 10 µM

Q: With `C=CC(=O)Nc1ncc2c(ccn2-c2ccc(C(C)(C)C)cc2)n1` [I-100, N-(5-(4-(tert-butyl)phenyl)-5H-pyrrolo[3,2-d]pyrimidin-2-yl)acrylamide] as the compound, how does the GI50 read?
A: 5 to 10 µM

Q: `CC(C)(C)c1ccc(-n2ccc3cc(C(=O)O)ccc32)cc1` [I-101, 1-(4-(tert-Butyl)phenyl)-1H-indole-5-carboxylic acid] was tested. Which GI50 did it give?
A: > 10 µM

Q: Which GI50 does the source give for `C=CC(=O)Nc1cn2cccc2c(-c2ccc(C3(C(F)(F)F)CC3)cc2)n1` [I-102, N-(1-(4-(1-(trifluoromethyl)cyclopropyl)phenyl)pyrrolo[1,2-a]pyrazin-3-yl)acrylamide] here?
A: ≤ 1 µM

Q: For `C=CC(=O)Nc1cc(-c2ccc(C(C)(C)C)cc2)nc2cc(C(=O)O)ccc12` [I-103, 4-Acrylamido-2-(4-(tert-butyl)phenyl)quinoline-7-carboxylic acid], which GI50 is on record?
A: > 10 µM

Q: Which GI50 does the source give for `C=CC(=O)Nc1nc(-c2ccc(C(C)(C)C)cc2)nc2cc(C(=O)O)ccc12` [I-104, 4-Acrylamido-2-(4-(tert-butyl)phenyl)quinazoline-7-carboxylic acid] here?
A: > 10 µM

Q: Which GI50 does the source give for `C=CC(=O)n1ccc2c(-c3ccc(C(C)(C)C)cc3)nccc21` [I-105, 1-(4-(4-(tert-Butyl)phenyl)-1H-pyrrolo[3,2-c]pyridin-1-yl)prop-2-en-1-one] here?
A: 1 to 5 µM

Q: `C=CC(=O)Nc1ccc2ccc(-c3ccc(C(C)(C)C)cc3)nc2c1` [I-106, N-(2-(4-(tert-butyl)phenyl)quinolin-7-yl)acrylamide] was tested. Which GI50 did it give?
A: 1 to 5 µM

Q: `O=C(O)c1ccc2c(c1)nc(NCCC(F)(F)F)c1cccn12` [I-107, 4-((3,3,3-Trifluoropropyl)amino)pyrrolo[1,2-a]quinoxaline-7-carboxylic acid] was tested. Which GI50 did it give?
A: > 10 µM

Q: How did the GI50 turn out when `CC(C)(C)c1ccc(-c2nc3cc(C(=O)O)ccc3n3cc(F)cc23)cc1` [I-108, 4-(4-(tert-Butyl)phenyl)-2-fluoropyrrolo[1,2-a]quinoxaline-7-carboxylic acid] was run?
A: 1 to 5 µM

Q: Which GI50 does the source give for `C=CC(=O)NCc1cn2ccnc2c(-c2ccc(C(F)(F)F)cc2)n1` [I-109, N-((8-(4-(trifluoromethyl)phenyl)imidazo[1,2-a]pyrazin-6-yl)methyl)acrylamide] here?
A: ≤ 1 µM
